Experiment [1] concerns differentiated dopaminergic PC12 cells exposed to 30 μM 6-OHDA. Put plainly: LIVE/DEAD viability of differentiated PC12 cells exposed to 6-OHDA. Particulars: 1 μM for 6 h, then 30 μM 6-OHDA for 24 h. The format is cell-based. As for the experimental part:
Differentiated dopaminergic PC12 cells and primary mouse embryonic cortical neurons (E17, DIV14) were treated with mock (H2O) or 1 μM of dextran, alginate, HA-GAGR, or midi-GAGR for 6 h and insulated by oxidative stressors (30 μM 6-OHDA [PC12] and 10 μM amyloid β peptide [cortical neurons]) for 24 h.

Experiment [2] relates to mouse cortical neurons (E17, DIV5). Briefly: LIVE/DEAD assay, pre-treatment of mouse cortical neurons before 4HNE, H2O2 or Aβ42. Particulars: pre-treatment 24 h (same concentrations). The format is cell-based. From the text: The protective effect of polysaccharides on primary cortical neurons from 4HNE, H2O2, and Aβ42 peptide (Sigma) was examined using LIVE/DEAD® Viability/Cytotoxicity Assay Kit (Life Technologies). Female pregnant mice (BALB/C, E17, Charles River Laboratories International, Inc.) or female pregnant SD rats (E17, bred in house) were anesthetized and dissected to obtain 8-9 embryos per animal. Cortical neurons were isolated from embryonic brains and differentiated on poly-L-lysine-coated coverslips in B27/neurobasal medium. For drug treatment before free radical treatment, mouse cortical neurons (5 days in vitro [DIV5]) were treated with vehicle (H2O), 1 μM of 5 kD dextran (Sigma), alginate (Sigma), midi-GAGR, 0.01 μM of high acyl gellan gum (HA-GAGR, CPKelco Co.), or 0.1 μM of LA-GAGR for 24 h and then treated with 10 μM 4HNE or 50 μM H2O2 for 24 h, or 2 μM Aβ42 peptide for 48 h prior to viability/cytotoxicity assay. For drug co-treatment with free radicals, rat cortical neurons (DIV5) were treated with 1 μM of dextran, alginate, or midi-GAGR, 0.01 μM of HA-GAGR, or 0.1 μM of LA-GAGR along with either 10 μM 4HNE (24 h) or 2 μM Aβ42 peptide (48 h). To examine the extent to which midi-GAGR-mediated neuroprotection depends on FGFR1, rat cortical neurons (E17, DIV5) were pre-treated with 4 μM SU5402 (Sigma) for 6 h and treated with 10 μM 4HNE and either vehicle or 1 μM midi-GAGR for 24 h prior to cell viability/cytotoxicity assay. As controls, neurons were treated with SU5402, midi-GAGR, 4HNE, 4HNE plus midi-GAGR, or SU5402 plus midi-GAGR.
For cell viability/cytotoxicity measurement, neurons on glass coverslips were incubated in 1×PBS containing 2 μM calcein AM (live cells: green) and 4 μM ethidium homodimer-1 (dead cells: red) for 10 min at 37° C. Immediately thereafter, neurons were imaged by 10×objective using a fluorescence Olympus IX71 microscope (Olympus America Inc., Center Valley, Pa.) and, for the acquisition of high-quality images, using TCS SP5 multi-photon laser scanning confocal microscope.
Midi-GAGR attenuated neurite atrophy caused by free reactive radicals. It is now shown herein that midi-GAGR protect neurons from the death caused by free radical insults. The extent to which midi-GAGR protects the primary culture of rodent cortical neurons from 4HNE and H2O2 was determined. In addition to the radicals, amyloid β peptide (Aβ42) was also tested. Aβ42 peptide is a major causative factor that causes oxidative stress and neuron death. Mouse cortical neurons (E17, DIV5) were treated with 10 μM 4HNE (24 h), 50 μM H2O2 (24 h), or 2 μM Aβ42 peptide (48 h) after the treatment of the neurons with vehicle (H2O), midi-GAGR (1 μM), dextran (1 μM), alginate (1 μM), LA-GAGR (0.1 μM), or HA-GAGR (0.01 μM) for 24 h. The concentrations of 4HNE, H2O2, and Aβ42 peptide were chosen according to their patho-physiological concentrations. The concentrations of LA-GAGR and HA-GAGR were chosen because, within the same volume, the total numbers of sugar units in the polysaccharides at the concentrations are close to that of 1 μM midi-GAGR. The viability of neurons was assessed using LIVE/DEAD® Viability/Cytotoxicity Assay Kit in which membrane-permeant calcein AM is cleaved by esterase in live cells, thus yielding green fluorescence, and membrane-impermeant ethidium homodimer-1 stains the nucleic acids of plasma membrane-compromised cells with red fluorescence. The numbers of green (live) and red (dead) neurons in each condition were counted using Metamorph. Although the intensities of green fluorescent signals in neurons treated with either free radicals or Aβ42 peptide were weak, the neurons were included in the counting. About 8-9% of vehicle-treated neurons died during the process of live/dead cell assay (FIGS. 23A-23F, FIGS. 24A-24C).

On to dextran, for which, in experiment [1], the 6-OHDA-induced cell death result is reported as “did not”. Further, the “percent of neuron death” value is on record as “did not decrease” in experiment [2] (then 2 μM Aβ42 peptide 48 h) and “did not reduce” in experiment [2] (then 50 μM H2O2 24 h).

Values taken from US11197885B2, “Collagen enhancing agent made from low acyl gellan gum, methods of making and methods of using the same” (The University of Toledo, priority 2015, dated 2021).
